Reference: PubChem BioAssay (NCI)
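These data come from cells grown in 96-well plates and exposed to compound for 48 hours at five concentrations. GI50 marks 50% less growth. TGI: total growth inhibition.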

Experiments:
Experiment in all cases: inhibition of tumour cell growth, NCI panel, 48 h
[1] = system: SNB-75 CNS
[2] = system: MCF7 breast
[3] = system: TK-10 renal
[4] = system: T-47D breast
[5] = system: SN12C renal
[6] = system: MALME-3M melanoma
[7] = system: 786-0 renal
[8] = system: EKVX NSCLC
[9] = system: OVCAR-8 ovarian
[10] = system: MOLT-4 leukemia
[11] = system: MDA-MB-231 breast
[12] = system: SW-620 colon
[13] = system: HT29 colon
[14] = system: SR leukemia
[15] = system: OVCAR-3 ovarian
[16] = system: HOP-62 NSCLC
[17] = system: HOP-92 NSCLC
[18] = system: SK-MEL-5 melanoma
[19] = system: UACC-62 melanoma
[20] = system: UACC-257 melanoma
[21] = system: SF-268 CNS
[22] = system: SF-539 CNS
[23] = system: SK-MEL-28 melanoma
[24] = system: HCC-2998 colon
[25] = system: OVCAR-4 ovarian
[26] = system: K-562 leukemia
[27] = system: NCI/ADR-RES ovarian
[28] = system: U251 CNS
[29] = system: DU-145 prostate
[30] = system: SNB-19 CNS
[31] = system: HCT-15 colon
[32] = system: OVCAR-5 ovarian
[33] = system: IGROV1 ovarian
[34] = system: ACHN renal
[35] = system: HS 578T breast
[36] = system: RPMI-8226 leukemia
[37] = system: HL-60(TB) leukemia
[38] = system: SF-295 CNS
[39] = system: SK-OV-3 ovarian
[40] = system: SK-MEL-2 melanoma
[41] = system: LOX IMVI melanoma
[42] = system: PC-3 prostate
[43] = system: NCI-H23 lung
[44] = system: NCI-H226 lung
[45] = system: COLO 205 colon
[46] = system: A549 NSCLC
[47] = system: UO-31 renal
[48] = system: BT-549 breast
[49] = system: RXF 393 renal
[50] = system: CCRF-CEM leukemia
[51] = system: NCI-H460 lung
[52] = system: M14 melanoma
[53] = system: CAKI-1 renal
[54] = system: NCI-H522 lung

CCOC(=O)c1cc(C(=O)c2cc(OC)cc(OC)c2)n2ncccc12
GI50 [1]: 399 nM
TGI [1]: > 100000 nM
GI50 [2]: 1310 nM
TGI [2]: > 100000 nM
GI50 [3]: 9780 nM
TGI [3]: > 100000 nM
GI50 [4]: 17200 nM
TGI [4]: > 100000 nM
GI50 [5]: 4160 nM
TGI [5]: > 100000 nM
GI50 [6]: > 100000 nM
TGI [6]: > 100000 nM
GI50 [7]: 11400 nM
TGI [7]: > 100000 nM
GI50 [8]: 4740 nM
TGI [8]: > 100000 nM
GI50 [9]: 3770 nM
TGI [9]: > 100000 nM
GI50 [10]: 2630 nM
TGI [10]: > 100000 nM
GI50 [11]: 8180 nM
TGI [11]: > 100000 nM
GI50 [12]: 518 nM
TGI [12]: > 100000 nM
GI50 [13]: 403 nM
TGI [13]: > 100000 nM
GI50 [14]: 573 nM
TGI [14]: > 100000 nM
GI50 [15]: 402 nM
TGI [15]: > 100000 nM
GI50 [16]: 10200 nM
TGI [16]: > 100000 nM
GI50 [17]: 24900 nM
TGI [17]: > 100000 nM
GI50 [18]: 508 nM
TGI [18]: > 100000 nM
GI50 [19]: 523 nM
TGI [19]: > 100000 nM
GI50 [20]: 67100 nM
TGI [20]: > 100000 nM
GI50 [21]: 26500 nM
TGI [21]: > 100000 nM
GI50 [22]: 1850 nM
TGI [22]: 40200 nM
GI50 [23]: 7360 nM
TGI [23]: > 100000 nM
GI50 [24]: 14700 nM
TGI [24]: > 100000 nM
GI50 [25]: 17000 nM
TGI [25]: > 100000 nM
GI50 [26]: 539 nM
TGI [26]: > 100000 nM
GI50 [27]: 463 nM
TGI [27]: 61100 nM
GI50 [28]: 2000 nM
TGI [28]: > 100000 nM
GI50 [29]: 3960 nM
TGI [29]: > 100000 nM
GI50 [30]: 4280 nM
TGI [30]: > 100000 nM
GI50 [31]: 587 nM
TGI [31]: > 100000 nM
GI50 [32]: 43500 nM
TGI [32]: > 100000 nM
GI50 [33]: 7120 nM
TGI [33]: > 100000 nM
GI50 [34]: 12200 nM
TGI [34]: > 100000 nM
GI50 [35]: 1990 nM
TGI [35]: > 100000 nM
GI50 [36]: 1820 nM
TGI [36]: > 100000 nM
GI50 [37]: 1380 nM
TGI [37]: 4660 nM
GI50 [38]: 2100 nM
TGI [38]: > 100000 nM
GI50 [39]: 4900 nM
TGI [39]: > 100000 nM
GI50 [40]: 738 nM
TGI [40]: > 100000 nM
GI50 [41]: 804 nM
TGI [41]: > 100000 nM
GI50 [42]: 7450 nM
TGI [42]: > 100000 nM
GI50 [43]: 4900 nM
TGI [43]: > 100000 nM
GI50 [44]: > 100000 nM
TGI [44]: > 100000 nM
GI50 [45]: 797 nM
TGI [45]: 75500 nM
GI50 [46]: 11100 nM
TGI [46]: > 100000 nM
GI50 [47]: 5680 nM
TGI [47]: > 100000 nM
GI50 [48]: 1220 nM
TGI [48]: > 100000 nM
GI50 [49]: 1640 nM
TGI [49]: 14200 nM
GI50 [50]: 2510 nM
TGI [50]: > 100000 nM
GI50 [51]: 2580 nM
TGI [51]: > 100000 nM
GI50 [52]: 394 nM
TGI [52]: > 100000 nM
GI50 [53]: 2970 nM
TGI [53]: > 100000 nM

Cc1c2c(cc[n+]1Cc1ccccc1)c1ccc(OCC3CCCCC3)cc1n2CC1CCCCC1
GI50 [1]: 293 nM
TGI [1]: 1470 nM
GI50 [2]: 306 nM
TGI [2]: 1110 nM
GI50 [4]: 560 nM
TGI [4]: 1790 nM
GI50 [54]: 261 nM
TGI [54]: 788 nM
GI50 [9]: 364 nM
TGI [9]: 1350 nM
GI50 [19]: 342 nM
TGI [19]: 1280 nM
GI50 [20]: 299 nM
TGI [20]: 961 nM
GI50 [22]: 1490 nM
TGI [22]: 2880 nM
GI50 [23]: 590 nM
TGI [23]: 1880 nM
GI50 [25]: 235 nM
TGI [25]: 735 nM
GI50 [27]: 1750 nM
TGI [27]: 4290 nM
GI50 [33]: 525 nM
TGI [33]: 2510 nM
GI50 [34]: 1240 nM
TGI [34]: 2530 nM
GI50 [35]: 525 nM
TGI [35]: 4060 nM
GI50 [39]: 506 nM
TGI [39]: 1560 nM
GI50 [50]: 207 nM
TGI [50]: 787 nM
GI50 [53]: 1280 nM
TGI [53]: 2640 nM
